According to US20250361281A1, “AMYLIN RECEPTOR (hAMY3R) AGONISTS WITH IMPROVED CHEMICAL STABILITY” (GUBRA A/S, priority 2022, published 2025):
Read-outs that look alike come from different tables or passages of the source. Starred links: 1 amine or outer side, 2 acyl side, 3 side chain; linkers in the order of their positions; H or OH if unused. Positions of bridges follow the written chain, without caps; N, C: chain ends. Non-standard residues stand in square brackets, D forms with d. Residues, ends and D or L forms follow the SMILES beside them. *: point of attachment. C20 diacid = O=C(O)CCCCCCCCCCCCCCCCCCC(=O)*; γGlu = O=C(O)[C@H](CCC(=O)[*:2])N[*:1]; Hyp = O=C(O)[C@@H]1C[C@@H](O)CN1; CH2 = C([*:1])[*:2]

Assays:
hAM1 receptor [1] = molecular target: T1, hAM1 receptor (Homo sapiens, UniProt O60895+Q16602); experiment: cAMP assay for in vitro receptor activation, hAM1-R; format: cell-based; details: cells stably overexpressing hAM1 receptor, cAMP accumulation, 30 min stimulation; read-out: hAM1R EC50
T1 construct: monoclonal sub-clone
T1 sequence (Q16602 23-461): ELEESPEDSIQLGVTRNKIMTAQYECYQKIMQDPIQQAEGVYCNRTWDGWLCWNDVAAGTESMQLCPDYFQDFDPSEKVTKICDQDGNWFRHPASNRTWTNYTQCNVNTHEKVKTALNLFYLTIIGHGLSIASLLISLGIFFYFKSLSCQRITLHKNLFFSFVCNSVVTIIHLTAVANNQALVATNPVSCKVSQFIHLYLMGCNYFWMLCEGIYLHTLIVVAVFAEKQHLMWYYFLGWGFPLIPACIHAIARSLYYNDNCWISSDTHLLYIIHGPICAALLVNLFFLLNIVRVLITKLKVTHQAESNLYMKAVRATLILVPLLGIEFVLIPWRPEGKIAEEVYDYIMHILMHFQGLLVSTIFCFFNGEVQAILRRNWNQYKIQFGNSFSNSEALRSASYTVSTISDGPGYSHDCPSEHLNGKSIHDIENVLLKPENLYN
T1 sequence (O60895 43-175 partner): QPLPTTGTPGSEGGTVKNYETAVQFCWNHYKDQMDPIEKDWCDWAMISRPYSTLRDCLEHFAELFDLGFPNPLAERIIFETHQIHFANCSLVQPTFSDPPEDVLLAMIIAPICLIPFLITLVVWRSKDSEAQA
Protocol: General Protocols for cAMP Assays for Measuring In Vitro Receptor Activation hAMY3-R:
Cells stably overexpressing the hAM1 receptor were obtained from Ogeda (now Astellas Pharma), sub-cloned and a monoclonal cell-line with an appropriate assay-window was expanded, aliquoted and frozen. An aliquot was thawed and plated in DPBS with 0.05% casein and 0.5 mM IBMX as 8000 cells/well in a 384-well format.

[2] = Physical stability of peptide analogues (Thioflavin T fibrillation); format: physicochemical; details: ThT fluorescence, 40° C., shaking, four days; pH 4 or pH 7 buffer
Protocol: General Protocols for Determination of Physical Stability of Peptide Analogues
Peptides were dissolved in buffers (50 mM sodium acetate at pH 4 or 50 mM sodium phosphate at pH 7) and incubated for one hour. The samples were then divided into two replicates of 80 μl in a black 384 well plate (μ-clear, Greiner Bio-One) and mixed with Thioflavin T (ThT) to a final concentration of 4 μM. The plate was sealed and placed in a plate reader (CLARIOstar, BMG) where the temperature was set at 40° C. during the course of the experiment. The samples were further stressed by shaking the plate at 700 rpm (linear) for five minutes before every measurement. The fluorescence was measured every 10 min for four days by exciting the ThT at 450 nm and measuring the emission at 480 nm. For each peptide, the ThT signal over time was smoothened using Local Polynomial Regression fitting (LOESS) as implemented in the statistical programming environment R. For the smoothened data, the maximum ThT signal was normalized in percent between the maximum ThT signal for hAMY and the buffer background.

[3] = Determination of deamidation and isomerization (LC-MS); format: physicochemical; details: 50 mM phosphate buffer pH 7, 40° C., up to 28 days
Protocol: General Protocol for Determination of Deamidation and Isomerization
Peptides were dissolved in 50 mM phosphate buffer (pH 7) and incubated at 40° C. for up to 28 days. The samples were then analysed on a Exploris120 mass spectrometer coupled to a Vanquish Tandem UPLC (both Thermo Fisher) equipped with an Acquity BEH C18 column (1.7 um, 2.1×50 mm, 130A, Waters). Peptides were eluted using a linear gradient starting at 5% over 7.5 min to 70% buffer B at a flow rate of 0.4 mL/min (buffer B=100% acetonitrile with 0.1% formic acid; buffer A=100% water with 0.1% formic acid). Data were acquired in data-dependent acquisition mode at a MS1 resolution of 60.000, and a MS2 resolution of 30.000 in positive mode (Top4). Peptides were fragmented with a normalized collision energy of 25%. Deamidation and isomerization were quantified using area under the curve integration.

[4] = Determination of dimer and HMWP formation (size exclusion chromatography); format: physicochemical; details: 50 mM phosphate buffer pH 7, 40° C., up to 28 days
Protocol: General Protocol for Determination of Dimer and HMWP Formation
Peptides were dissolved in 50 mM phosphate buffer (pH 7) and incubated at 40° C. for up to 28 days. The samples were then analysed using size exclusion chromatography analysis to quantify the amount of High Molecular Weight Products (HMWP), which is an overall term for covalently linked peptide dimers, trimers, and higher order multimers. Analyses were carried out on a Dionex Ultimate 3000 RS UHPLC Focused chromatography system (Thermo Scientific) equipped with a Acquity Protein BEH SEC 1.7 μm 4.6×300 mm 125 Å column (Waters part no 186006506). The solvent system consisted of two mobile phases that are assumed to break all non-covalent interactions between peptides leaving only monomeric peptide and covalent HMWP to be analysed. • Mobile phase A (all v/v %): 95% H2O, 5% MeCN (Acetonitrile), 0.1% TFA (Trifluoroacetic acid) • Mobile phase B (all v/v %): 95% MeCN, 5% H2O, 0.1% TFA
The typically load was 1 μl of 1.0 mg/ml, and the detection signal at 215 nm should optimally be between 0.1 and 1.5 abs units. Isocratic elution was done with 60% mobile phase B and a flow of 0.3 ml/min in 20 minutes. Chromatograms were integrated as HMWP (all peaks in front of the main peak) The amount of the various species was reported as area relative to total area in percentage.

hAMY3 receptor = molecular target: T2, hAMY3 receptor (Homo sapiens, UniProt O60896+P30988); details: previously shown (WO 2022/063925 A1); read-out: hAMY3R EC50; cited from earlier work
T2 construct: monoclonal sub-clone
T2 sequence (P30988 25-474): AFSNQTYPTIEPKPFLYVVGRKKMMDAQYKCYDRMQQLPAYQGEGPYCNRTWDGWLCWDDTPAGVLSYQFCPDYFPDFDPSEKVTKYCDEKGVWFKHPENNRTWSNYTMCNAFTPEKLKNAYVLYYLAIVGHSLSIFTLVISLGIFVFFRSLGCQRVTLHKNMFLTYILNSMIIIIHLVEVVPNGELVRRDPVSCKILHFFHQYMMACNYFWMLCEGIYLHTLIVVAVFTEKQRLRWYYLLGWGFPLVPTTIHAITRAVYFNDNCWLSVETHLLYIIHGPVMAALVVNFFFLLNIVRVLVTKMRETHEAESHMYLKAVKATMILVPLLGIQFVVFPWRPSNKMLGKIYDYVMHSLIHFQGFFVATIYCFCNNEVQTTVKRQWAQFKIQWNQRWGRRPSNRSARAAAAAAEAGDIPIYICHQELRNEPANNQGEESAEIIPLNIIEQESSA
T2 sequence (O60896 24-148 partner): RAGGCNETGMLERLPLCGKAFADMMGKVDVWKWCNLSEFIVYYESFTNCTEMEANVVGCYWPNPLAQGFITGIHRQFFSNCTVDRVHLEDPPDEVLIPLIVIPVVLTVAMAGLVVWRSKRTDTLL

hAM1 receptor [5] = molecular target: T1, hAM1 receptor; details: previously shown (WO 2022/063925 A1); read-out: hAM1R EC50; cited from earlier work
[6] = previously shown; cited from earlier work

Row | SMILES | EC50 (hAM1 receptor [1]) | Fibril formation [2] | Deamidation [3] | Isomerization [3] | Deamidation ([3]; listed as 4) | Dimerization and HMWP formation [4] | EC50 (hAMY3 receptor) | EC50 (hAM1 receptor [5]) | fibrillation [6]
1 | CC[C@H](C)[C@H](NC(=O)[C@H](CCC(N)=O)NC(=O)[C@H](CCC(=O)O)NC(=O)[C@H](C)NC(=O)[C@H](CC(C)C)NC(=O)[C@H](CCCNC(=N)N)NC(=O)[C@H](C)NC(=O)[C@@H](NC(=O)[C@@H](NC(=O)[C@@H]1CSCSC[C@H](NC(=O)[C@H](CCCCN)NC(=O)CC[C@H](NC(=O)CCCCCCCCCCCCCCCCCCC(=O)O)C(=O)O)C(=O)N[C@@H](CC(C)C)C(=O)N[C@@H]([C@@H](C)O)C(=O)N[C@@H](C)C(=O)N[C@@H]([C@@H](C)O)C(=O)N1)[C@@H](C)O)C(C)C)C(=O)N[C@@H](C)C(=O)N[C@@H](CCC(N)=O)C(=O)N[C@@H](Cc1ccccc1)C(=O)N[C@H](C(=O)N[C@@H](CC(=O)O)C(=O)N[C@@H](CCCCN)C(=O)N[C@@H](CC(=O)O)C(=O)N[C@@H](CCCCN)C(=O)N[C@@H](CCC(=O)O)C(=O)N[C@@H](CC(N)=O)C(=O)N[C@H](C(=O)N[C@@H](C)C(=O)N1CCC[C@H]1C(=O)N1CCC[C@H]1C(=O)N[C@H](C(=O)N[C@@H](C)C(=O)N[C@H](C(=O)NCC(=O)N[C@@H](CO)C(=O)N[C@@H](C)C(=O)NCC(=O)N1C[C@H](O)C[C@H]1C(N)=O)C(C)C)[C@@H](C)O)C(C)C)[C@@H](C)O [SEQ ID NO: 4] ({C20 diacid-γGlu}-KCLTATCTVARLAEQIAQFTDKDKENVAPPTAVGSAG[Hyp]-NH2; linker 2-7 via CH2) | > 5 µM | No | < 5% | 1.2% | <5% | 2% | – | – | –
2 | CC[C@H](C)[C@H](NC(=O)[C@H](CCC(N)=O)NC(=O)[C@H](CCC(=O)O)NC(=O)[C@H](C)NC(=O)[C@H](CC(C)C)NC(=O)[C@H](CCCNC(=N)N)NC(=O)[C@H](CCC(N)=O)NC(=O)[C@@H](NC(=O)[C@@H](NC(=O)[C@@H]1CSSC[C@H](NC(=O)[C@H](CCCCN)NC(=O)CC[C@H](NC(=O)CCCCCCCCCCCCCCCCCCC(=O)O)C(=O)O)C(=O)N[C@@H](CC(N)=O)C(=O)N[C@@H]([C@@H](C)O)C(=O)N[C@@H](C)C(=O)N[C@@H]([C@@H](C)O)C(=O)N1)[C@@H](C)O)C(C)C)C(=O)N[C@@H](C)C(=O)N[C@@H](CCC(N)=O)C(=O)N[C@@H](Cc1ccccc1)C(=O)N[C@H](C(=O)N[C@@H](CC(=O)O)C(=O)N[C@@H](CCCCN)C(=O)N[C@@H](CC(=O)O)C(=O)N[C@@H](CCCCN)C(=O)N[C@@H](CC(=O)O)C(=O)N[C@@H](CC(N)=O)C(=O)N[C@H](C(=O)N[C@@H](C)C(=O)N1CCC[C@H]1C(=O)N1CCC[C@H]1C(=O)N[C@H](C(=O)N[C@@H](CC(N)=O)C(=O)N[C@H](C(=O)NCC(=O)N[C@@H](CO)C(=O)N[C@@H](CC(N)=O)C(=O)NCC(=O)N1C[C@H](O)C[C@H]1C(N)=O)C(C)C)[C@@H](C)O)C(C)C)[C@@H](C)O [SEQ ID NO: 3] ({C20 diacid-γGlu}-KCNTATCTVQRLAEQIAQFTDKDKDNVAPPTNVGSNG[Hyp]-NH2; disulfide 2-7) | – | No | 97% | 5% | – | 12% | 0.014 µM | > 5 µM | no fibrillation
